Data as given in PubChem BioAssay (NCI).
Where “and” joins values, the source holds several entries; their conditions need not be identical. Equal values may be shown once.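 All cell lines were grown in 96-well plates and treated with compound for 48 hours. GI50 marks 50% less growth. The concentration for full growth arrest is given as TGI.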

Columns and labels:
Test in all cases: NCI-60 cell line screen, 48 h
SK-MEL-5 melanoma = test system: SK-MEL-5 melanoma
UACC-62 melanoma = test system: UACC-62 melanoma
MDA-MB-231 breast = test system: MDA-MB-231 breast
DU-145 prostate = test system: DU-145 prostate
SF-295 CNS = test system: SF-295 CNS
KM12 colon = test system: KM12 colon
HCT-15 colon = test system: HCT-15 colon
NCI-H226 lung = test system: NCI-H226 lung
NCI-H522 lung = test system: NCI-H522 lung
SNB-19 CNS = test system: SNB-19 CNS

| Compound | TGI (SK-MEL-5 melanoma) | TGI (UACC-62 melanoma) | TGI (MDA-MB-231 breast) | TGI (DU-145 prostate) | TGI (SF-295 CNS) | TGI (KM12 colon) | TGI (HCT-15 colon) | TGI (NCI-H226 lung) | TGI (NCI-H522 lung) | TGI (SNB-19 CNS) | GI50 (NCI-H522 lung) | GI50 (UACC-62 melanoma) | GI50 (MDA-MB-231 breast) | GI50 (DU-145 prostate) | GI50 (SF-295 CNS) | GI50 (KM12 colon) | GI50 (HCT-15 colon) | GI50 (SNB-19 CNS) | GI50 (NCI-H226 lung) | GI50 (SK-MEL-5 melanoma) |
| --- | --- | --- | --- | --- | --- | --- | --- | --- | --- | --- | --- | --- | --- | --- | --- | --- | --- | --- | --- | --- |
| N#C[C@H]1Nc2ccccc2[C@@H](O)C1O (stereo partly drawn) | > 100 µM | > 100 µM | > 100 µM | > 100 µM | > 100 µM | > 100 µM | > 100 µM | – | – | – | – | – | – | – | – | – | – | – | – | – |
| CN(CCN(C)C(=O)CCOS(C)(=O)=O)C(=O)CCOS(C)(=O)=O | > 100 µM | > 100 µM | – | – | > 100 µM | > 100 µM | > 100 µM | > 100 µM | > 100 µM | > 100 µM | – | – | – | – | – | – | – | – | – | – |
| OCc1ccc(Oc2c3ccccc3nc3occc23)cc1 | – | 47.3 µM | > 100 µM | > 100 µM | 35.9 µM | 37.8 µM | 47.3 µM | – | > 100 µM | > 100 µM | > 100 µM | 20 µM | 39.4 µM | 33.6 µM | 15.5 µM | 17.8 µM | 19.4 µM | 39.8 µM | – | – |
| COc1ccccc1NC(=O)CC(=O)NNCC(=O)Nc1nnc(-c2ccccc2)o1 | > 100 µM | > 100 µM | – | – | > 100 µM | > 100 µM | > 100 µM | > 100 µM | > 100 µM | > 100 µM | – | – | – | – | – | – | – | – | – | – |
| Cn1c(=O)oc2cc(C3CCC(=O)N3Cc3ccc(Cl)cc3)ccc21 (stereo not drawn) | > 100 µM | > 100 µM | – | – | > 100 µM | > 100 µM | > 100 µM | > 100 µM | > 100 µM | > 100 µM | – | – | – | – | – | – | – | – | – | – |
| COc1ccc2c(c1)CCCC1C3=NCCC3(C)CSC21 (stereo not drawn) | > 100 µM | > 100 µM | – | – | > 100 µM | > 100 µM | – | – | > 100 µM | > 100 µM | – | – | – | – | – | – | – | – | – | – |
| Cc1cc(C)c2c(N)c3cccc(C)c3nc2n1 | 2.74 µM | – | 6.27 µM | 6.5 µM | 8.07 µM | 9.69 µM | 6.5 µM | 4.49 µM | 9.7 µM | 8.73 µM | 2.61 µM | – | 1.56 µM | 2.33 µM | 1.44 µM | 3.32 µM | 1.76 µM | 2.21 µM | 1.2 µM | 1.44 µM |
| NC(=O)c1c2c(cc3c(=O)c4ccccc4[nH]c13)CCCC2 | > 100 µM | > 100 µM | – | – | > 100 µM | > 100 µM | > 100 µM | > 100 µM | > 100 µM | > 100 µM | – | – | – | – | – | – | – | – | – | – |
| CCOC(=O)c1cnc2cc3cccccc3n2c1=O | – | > 100 µM | – | – | > 100 µM | > 100 µM | > 100 µM | > 100 µM | – | > 100 µM | – | – | – | – | – | – | – | – | – | – |
| CCC[CH2][Sn]1([CH2]CCC)[O]C(=O)CN=Cc2ccccc2[O]1 | > 100 µM | 0.46 µM | – | – | 2.37 µM | 2.18 µM | 1.56 µM | – | 0.173 µM | 0.556 µM | 0.0349 µM | 0.197 µM | – | – | 1.14 µM | 0.695 µM | 0.358 µM | 0.222 µM | – | 1.49 µM |
| CCOC(=O)C1=C(c2ccccc2)N(c2ccc(OC)cc2)[C@]2(C#N)C(O)=C(Cl)C(Cl)=C(O)[C@]12C#N | 51.9 µM | – | 44.3 µM | > 100 µM | 76.7 µM | 36.5 µM | 40.8 µM | 42.5 µM | 46.6 µM | 42.1 µM | 21.3 µM | – | 20.1 µM | 31.9 µM | 25.9 µM | 18.3 µM | 19.2 µM | 20.5 µM | 20.2 µM | 22.1 µM |
| O=CN1CCN(C=S)CC1 | > 100 µM | > 100 µM | – | – | > 100 µM | > 100 µM | > 100 µM | > 100 µM | > 100 µM | > 100 µM | – | – | – | – | – | – | – | – | – | – |
| COc1cc(OC)cc(-c2cncn2-c2ccc(-c3nc4cc(OC)cc(OC)c4s3)cc2)c1 | > 100 µM | > 100 µM | > 100 µM | > 100 µM | 43.1 µM | > 100 µM | – | > 100 µM | > 100 µM | > 100 µM | 2.49 µM | 4.75 µM | 9.01 µM | > 100 µM | 2.4 µM | 4.52 µM | – | > 100 µM | 18.5 µM | 3.29 µM |
| CO/N=C(/COc1c(-c2ccccc2)oc2ccccc2c1=O)c1ccc(F)cc1 | > 100 µM | > 100 µM | 53.8 µM | > 100 µM | > 100 µM | > 100 µM | > 100 µM | > 100 µM | > 100 µM | – | 36.4 µM | 96.1 µM | 20.5 µM | > 100 µM | 41.1 µM | > 100 µM | > 100 µM | – | > 100 µM | > 100 µM |
| CCCCCCCCCCCCCCCCn1cc[n+](Cc2ccccc2)c1C | – | 2.01 µM and 1.21 µM | 0.989 µM | 2.3 µM and 1.05 µM | 2.28 µM and 1.22 µM | 2.87 µM and 0.407 µM | – | – | 1.88 µM | 2.01 µM | 0.451 µM | 0.577 µM and 0.232 µM | 0.0684 µM | 1.07 µM and 0.235 µM | 0.866 µM and 0.263 µM | 1.36 µM and 0.176 µM | – | 0.565 µM | – | – |
| CCOC(=O)C(=O)Nc1ccc(Cl)c(C(F)(F)F)c1 | > 100 µM | > 100 µM | – | – | > 100 µM | – | > 100 µM | > 100 µM | > 100 µM | > 100 µM | – | – | – | – | – | – | – | – | – | – |
| COc1cc(/C=C2\C(=O)Nc3ccccc32)cc(OC)c1OC | 57.1 µM | > 100 µM | 78.1 µM | – | > 100 µM | 98 µM | > 100 µM | > 100 µM | 90.4 µM | > 100 µM | 14.1 µM | 14.4 µM | 11.4 µM | – | 28.3 µM | 11.7 µM | 11.6 µM | 27.1 µM | 26.1 µM | 11.1 µM |
| CC(=O)NC1=C(NCc2ccc(Cl)cc2)C(=O)c2ccccc2C1=O | 11.4 µM | 8.61 µM | – | – | 47 µM | > 50 µM | 11.6 µM | 26.1 µM | 3.13 µM | > 50 µM | – | – | – | – | – | – | – | – | – | – |
